What was measured:
[1] = target: T1, RNase II (Escherichia coli, UniProt P30850); type: biochemical; conditions: 10 mM compound, 10 nM enzyme, 10 nM poly(A), 1 mM MgCl2, 100 mM KCl, pH 8, 37 °C, DMSO
T1 construct: gene rnb; full-length recombinant, N-terminal His tag (pET15b derivative), expressed in E. coli BL21(DE3), IMAC purified

[2] = target: T2, RNase R (Escherichia coli, UniProt P21499); type: biochemical; conditions: 10 mM compound, 10 nM enzyme, 10 nM poly(A), 1 mM MgCl2, 100 mM KCl, pH 8, 37 °C, DMSO
T2 construct: gene rnr; full-length recombinant, N-terminal His tag (pET15b derivative), expressed in E. coli BL21(DE3), IMAC purified
T2 sequence (P21499 2-813): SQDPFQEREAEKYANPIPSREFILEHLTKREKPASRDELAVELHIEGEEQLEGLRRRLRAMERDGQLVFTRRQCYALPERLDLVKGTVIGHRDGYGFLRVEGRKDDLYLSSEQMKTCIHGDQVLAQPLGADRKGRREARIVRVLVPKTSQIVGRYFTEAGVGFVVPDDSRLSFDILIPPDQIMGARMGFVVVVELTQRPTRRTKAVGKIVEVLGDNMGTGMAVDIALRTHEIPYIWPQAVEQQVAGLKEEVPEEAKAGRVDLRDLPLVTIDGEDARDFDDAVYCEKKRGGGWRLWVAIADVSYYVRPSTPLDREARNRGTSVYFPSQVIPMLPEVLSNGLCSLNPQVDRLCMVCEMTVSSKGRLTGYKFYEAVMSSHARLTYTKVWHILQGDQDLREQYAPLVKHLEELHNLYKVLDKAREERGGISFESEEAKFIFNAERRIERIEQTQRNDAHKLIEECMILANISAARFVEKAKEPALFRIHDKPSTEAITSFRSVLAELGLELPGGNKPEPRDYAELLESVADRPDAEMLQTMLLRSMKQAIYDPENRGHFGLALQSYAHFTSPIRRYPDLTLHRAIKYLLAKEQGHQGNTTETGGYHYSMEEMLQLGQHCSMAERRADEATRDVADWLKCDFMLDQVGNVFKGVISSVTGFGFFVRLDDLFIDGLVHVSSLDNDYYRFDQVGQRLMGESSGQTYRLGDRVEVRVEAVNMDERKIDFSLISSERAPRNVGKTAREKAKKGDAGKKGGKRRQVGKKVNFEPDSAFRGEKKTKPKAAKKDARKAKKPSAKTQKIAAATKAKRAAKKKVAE

T1 sequence (P30850 whole entry): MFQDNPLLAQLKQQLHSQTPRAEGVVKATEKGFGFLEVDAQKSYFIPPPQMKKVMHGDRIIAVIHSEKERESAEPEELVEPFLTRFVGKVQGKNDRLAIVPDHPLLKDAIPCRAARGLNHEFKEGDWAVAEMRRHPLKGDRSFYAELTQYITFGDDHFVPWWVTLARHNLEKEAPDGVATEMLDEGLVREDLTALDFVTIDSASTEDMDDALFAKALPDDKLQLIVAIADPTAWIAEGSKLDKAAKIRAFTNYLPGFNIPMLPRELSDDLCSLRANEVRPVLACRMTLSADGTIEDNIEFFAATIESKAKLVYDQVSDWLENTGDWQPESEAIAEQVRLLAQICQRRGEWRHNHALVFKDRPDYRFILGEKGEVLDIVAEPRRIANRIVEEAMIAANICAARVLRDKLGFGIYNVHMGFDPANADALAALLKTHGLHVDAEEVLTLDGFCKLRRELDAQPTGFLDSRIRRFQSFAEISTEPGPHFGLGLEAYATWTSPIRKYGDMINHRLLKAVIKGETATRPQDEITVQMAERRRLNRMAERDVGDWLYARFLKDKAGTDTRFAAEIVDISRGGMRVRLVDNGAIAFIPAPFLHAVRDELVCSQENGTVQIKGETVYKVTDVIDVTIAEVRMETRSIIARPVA

Row | SMILES | gel exoribonuclease assay, 5'-32P 35-nt poly(A) [1] | gel exoribonuclease assay, 5'-32P 35-nt poly(A) [2]
1 | Cc1nc(S)nc(O)c1Oc1cccc(C(F)(F)F)c1 [SPB04215, 2-mercapto-6-methyl-5-[3-(trifluoromethyl)phenoxy]pyrimidin-4-ol] | with RNase II being also affected, but to a lesser extent | SPB04215 and SPB04462 compounds were also effective in inhibiting RNase R activity
2 | CC(=O)Nc1nc(C)c(Oc2cccc(C(F)(F)F)c2)c(O)n1 [SPB04462, N1-{4-hydroxy-6-methyl-5-[3-(trifluoromethyl)phenoxy]pyrimidin-2-yl}acetamide] | with RNase II being also affected, but to a lesser extent | SPB04215 and SPB04462 compounds were also effective in inhibiting RNase R activity

From publication PMC11311990, “Identification of Ribonuclease Inhibitors for the Control of Pathogenic Bacteria” (International Journal of Molecular Sciences, 2024)
